Measured values taken from ChEMBL document CHEMBL4261651, “Probing the ligand preferences of the three types of bacterial pantothenate kinase” (Bioorg Med Chem, 2018).
Activity calls are given as the source filed them. The rule behind the calls is not given here.

Experiments:
[1] = molecular target: T1, Type II pantothenate kinase (Staphylococcus aureus (strain MSSA476)) (UniProt Q6G7I0); experiment: Inhibition of N-terminal His6-tagged Staphylococcus aureus PanK2 expressed in Escherichia coli BL21(DE3) cells at 200 uM using pantothenate as substrate in presence of ATP by pyruvate kinase/lactate dehydrogenase enzyme coupled assay
T1 sequence (whole entry): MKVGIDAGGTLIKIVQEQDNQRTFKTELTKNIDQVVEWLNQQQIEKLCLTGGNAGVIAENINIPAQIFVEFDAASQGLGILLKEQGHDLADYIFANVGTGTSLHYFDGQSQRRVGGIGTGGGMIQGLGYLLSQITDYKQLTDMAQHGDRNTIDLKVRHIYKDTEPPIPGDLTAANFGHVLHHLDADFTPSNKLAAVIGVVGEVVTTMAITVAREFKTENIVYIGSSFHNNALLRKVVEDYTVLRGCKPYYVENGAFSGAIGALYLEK

Escherichia coli [2] = experiment: Growth inhibition of Escherichia coli ATCC 25922 after 16 hrs by broth microdilution method; assay type: functional, organism-based
Enterococcus faecium = experiment: Growth inhibition of Enterococcus faecium ATCC 19434 after 16 hrs by broth microdilution method; assay type: functional, organism-based
Pseudomonas aeruginosa = experiment: Growth inhibition of Pseudomonas aeruginosa ATCC 27853 after 16 hrs by broth microdilution method; assay type: functional, organism-based
Escherichia coli [3] = experiment: Inhibition of N-terminal His6-tagged Escherichia coli PanK1 expressed in Escherichia coli BL21(DE3) cells at >= 100 uM using pantothenate as substrate in presence of ATP by pyruvate kinase/lactate dehydrogenase enzyme coupled assay
[4] = molecular target: T2, Type III pantothenate kinase (Pseudomonas aeruginosa (strain ATCC 15692 / DSM 22644 / CIP 104116 /JCM 14847 / LMG 12228 / 1C / PRS 101 / PAO1)) (UniProt Q9HWC1); experiment: Inhibition of Pseudomonas aeruginosa PanK3 expressed in Escherichia coli BL21 Rosetta(DE3) cells at >= 100 uM using pantothenate as substrate in presence of ATP by pyruvate kinase/lactate dehydrogenase enzyme coupled assay
T2 sequence (whole entry): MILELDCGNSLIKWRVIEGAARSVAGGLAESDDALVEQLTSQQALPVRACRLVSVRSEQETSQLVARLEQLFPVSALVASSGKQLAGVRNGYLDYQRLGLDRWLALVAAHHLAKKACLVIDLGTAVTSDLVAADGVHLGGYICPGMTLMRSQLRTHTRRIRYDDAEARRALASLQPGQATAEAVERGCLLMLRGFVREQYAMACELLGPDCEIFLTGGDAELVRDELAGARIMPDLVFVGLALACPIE

[5] = molecular target: T1, Type II pantothenate kinase (Staphylococcus aureus (strain MSSA476)); experiment: Inhibition of N-terminal His6-tagged Staphylococcus aureus PanK2 expressed in Escherichia coli BL21(DE3) cells at >= 100 uM using pantothenate as substrate in presence of ATP by pyruvate kinase/lactate dehydrogenase enzyme coupled assay
Escherichia coli [6] = experiment: Substrate activity at N-terminal His6-tagged Escherichia coli PanK1 expressed in Escherichia coli BL21(DE3) cells assessed as Km in presence of ATP/NADH by pyruvate kinase/lactate dehydrogenase enzyme coupled assay
Escherichia coli [7] = experiment: Substrate activity at N-terminal His6-tagged Escherichia coli PanK1 expressed in Escherichia coli BL21(DE3) cells assessed as Kcat in presence of ATP/NADH by pyruvate kinase/lactate dehydrogenase enzyme coupled assay
Escherichia coli [8] = experiment: Substrate activity at N-terminal His6-tagged Escherichia coli PanK1 expressed in Escherichia coli BL21(DE3) cells assessed as ratio of Kcat to Km in presence of ATP/NADH by pyruvate kinase/lactate dehydrogenase enzyme coupled assay
[9] = molecular target: T1, Type II pantothenate kinase (Staphylococcus aureus (strain MSSA476)); experiment: Substrate activity at N-terminal His6-tagged Staphylococcus aureus PanK2 expressed in Escherichia coli BL21(DE3) cells assessed as ratio of Kcat to Km in presence of ATP/NADH by pyruvate kinase/lactate dehydrogenase enzyme coupled assay
Escherichia coli [10] = experiment: Inhibition of N-terminal His6-tagged Escherichia coli PanK1 expressed in Escherichia coli BL21(DE3) cells at 200 uM using pantothenate as substrate in presence of ATP by pyruvate kinase/lactate dehydrogenase enzyme coupled assay
[11] = molecular target: T2, Type III pantothenate kinase (Pseudomonas aeruginosa (strain ATCC 15692 / DSM 22644 / CIP 104116 /JCM 14847 / LMG 12228 / 1C / PRS 101 / PAO1)); experiment: Inhibition of Pseudomonas aeruginosa PanK3 expressed in Escherichia coli BL21 Rosetta(DE3) cells at 200 uM using pantothenate as substrate in presence of ATP by pyruvate kinase/lactate dehydrogenase enzyme coupled assay
Escherichia coli [12] = experiment: Substrate activity at N-terminal His6-tagged Escherichia coli PanK1 expressed in Escherichia coli BL21(DE3) cells in presence of ATP/NADH by pyruvate kinase/lactate dehydrogenase enzyme coupled assay
[13] = molecular target: T2, Type III pantothenate kinase (Pseudomonas aeruginosa (strain ATCC 15692 / DSM 22644 / CIP 104116 /JCM 14847 / LMG 12228 / 1C / PRS 101 / PAO1)); experiment: Substrate activity at Pseudomonas aeruginosa PanK3 expressed in Escherichia coli BL21(DE3) cells in presence of ATP/NADH by pyruvate kinase/lactate dehydrogenase enzyme coupled assay
[14] = molecular target: T1, Type II pantothenate kinase (Staphylococcus aureus (strain MSSA476)); experiment: Substrate activity at N-terminal His6-tagged Staphylococcus aureus PanK2 expressed in Escherichia coli BL21(DE3) cells in presence of ATP/NADH by pyruvate kinase/lactate dehydrogenase enzyme coupled assay
[15] = molecular target: T2, Type III pantothenate kinase (Pseudomonas aeruginosa (strain ATCC 15692 / DSM 22644 / CIP 104116 /JCM 14847 / LMG 12228 / 1C / PRS 101 / PAO1)); experiment: Substrate activity at Pseudomonas aeruginosa PanK3 expressed in Escherichia coli BL21(DE3) cells assessed as ratio of Kcat to Km in presence of ATP/NADH by pyruvate kinase/lactate dehydrogenase enzyme coupled assay

SMILES | inhibition [1] | inhibition [4] | inhibition [5] | Ratio [9] [mM⁻¹ s⁻¹] | inhibition [11] | Activity [13] | Activity [14] | Ratio [15] [mM⁻¹ s⁻¹] | growth inhibition (GI) (Escherichia coli [2]) | growth inhibition (GI) (Enterococcus faecium) | growth inhibition (GI) (Pseudomonas aeruginosa) | inhibition (Escherichia coli [3]) | Km (Escherichia coli [6]) [µM] | kcat (Escherichia coli [7]) [s⁻¹] | Ratio (Escherichia coli [8]) [mM⁻¹ s⁻¹] | inhibition (Escherichia coli [10]) | Activity (Escherichia coli [12])
CCCc1cn(CCCNC(=O)[C@H](O)C(C)(C)CO)nn1 | – | inactive | inactive | 21 | – | – | – | – | inactive | inactive | inactive | inactive | – | – | – | – | –
CC(C)(CNCCc1ccccc1)[C@@H](O)C(=O)NCCC(=O)O | – | – | – | – | – | – | – | – | inactive | inactive | inactive | – | – | – | – | Active | –
CCCCCc1cn(CCNC(=O)[C@H](O)C(C)(C)CO)nn1 | – | inactive | inactive | 97 | – | – | – | – | inactive | inactive | inactive | inactive | 21 | 1.11 | 53 | – | –
CCCCn1cc(CCNC(=O)[C@H](O)C(C)(C)CO)nn1 | – | inactive | inactive | 115 | – | – | – | – | inactive | inactive | inactive | inactive | 50 | 1.08 | 22 | – | –
CC(=O)CC(=O)OCC(C)(C)[C@@H](O)C(=O)NCCC(=O)O | – | – | – | – | – | – | – | – | inactive | inactive | inactive | – | – | – | – | – | –
COCC(C)(C)[C@@H](OC)C(=O)NCCC(=O)O | – | – | – | – | – | – | – | – | inactive | inactive | inactive | – | – | – | – | – | –
CCCNCC(C)(C)[C@@H](O)C(=O)NCCC(=O)O | – | – | – | – | – | – | – | – | inactive | inactive | inactive | – | – | – | – | – | –
CC(C)(CO)[C@@H](O)C(=O)NCc1cn(CCc2ccccc2)nn1 | – | inactive | inactive | 37 | – | – | – | – | inactive | inactive | inactive | inactive | 25 | 1.09 | 44 | – | –
CCCCCCCNCC(C)(C)[C@@H](O)C(=O)NCCC(=O)O | – | – | – | – | – | – | – | – | inactive | inactive | inactive | – | – | – | – | – | –
CCCCCn1cc(CCNC(=O)[C@H](O)C(C)(C)CO)nn1 | – | inactive | inactive | 107 | – | – | – | – | inactive | inactive | inactive | inactive | 33 | 0.72 | 22 | – | –
CCCCCn1cc(CNC(=O)[C@H](O)C(C)(C)CO)nn1 | – | inactive | inactive | 54 | – | – | – | – | inactive | inactive | inactive | inactive | – | – | – | – | –
CCCCCNCC(C)(C)[C@@H](O)C(=O)NCCC(=O)O | – | – | – | – | – | – | – | – | inactive | inactive | inactive | – | – | – | – | Active | –

Second part, led by results:

inhibition [1] | inhibition [4] | inhibition [5] | Ratio [9] [mM⁻¹ s⁻¹] | inhibition [11] | Activity [13] | Activity [14] | Ratio [15] [mM⁻¹ s⁻¹] | SMILES | growth inhibition (GI) (Escherichia coli [2]) | growth inhibition (GI) (Enterococcus faecium) | growth inhibition (GI) (Pseudomonas aeruginosa) | inhibition (Escherichia coli [3]) | Km (Escherichia coli [6]) [µM] | kcat (Escherichia coli [7]) [s⁻¹] | Ratio (Escherichia coli [8]) [mM⁻¹ s⁻¹] | inhibition (Escherichia coli [10]) | Activity (Escherichia coli [12])
Active | – | – | – | – | – | – | – | CC(C)(C(=O)O)[C@@H](O)C(=O)NCCC(=O)O | inactive | inactive | inactive | – | – | – | – | – | –
– | inactive | inactive | – | – | – | – | – | CO[C@@H](C(=O)NCCC(=O)O)C(C)(C)CO | inactive | inactive | inactive | inactive | 16 | 0.49 | 31 | – | –
– | inactive | inactive | – | – | – | – | – | CC(C)(CO)[C@@H](O)C(=O)NCC(=O)O | inactive | inactive | inactive | inactive | 62 | 1.59 | 26 | – | –
– | inactive | inactive | 8.3 | – | – | – | – | COC(=O)CCNC(=O)[C@H](O)C(C)(C)CO | inactive | inactive | inactive | inactive | 292 | 0.8 | 2.7 | – | –
– | inactive | inactive | 7.1 | – | – | – | – | COC(=O)CCCNC(=O)[C@H](O)C(C)(C)CO | inactive | inactive | inactive | inactive | – | – | – | – | –
Active | – | – | – | Active | – | – | – | CC(=O)CC(=O)NCC(C)(C)[C@@H](O)C(=O)NCCC(=O)O | inactive | inactive | inactive | – | – | – | – | Active | –
– | inactive | inactive | – | – | inactive | inactive | – | CC(C)(CNCCCO)[C@@H](O)C(=O)NCCC(=O)O | inactive | inactive | inactive | inactive | – | – | – | – | inactive
– | inactive | inactive | 57 | – | – | – | 1.4 | CC(C)(CO)[C@@H](O)C(=O)NCCCC(=O)O | inactive | inactive | inactive | inactive | – | – | – | – | –
– | – | – | – | Active | – | – | – | CNCC(C)(C)[C@@H](O)C(=O)NCCC(=O)O | inactive | inactive | inactive | – | – | – | – | Active | –
– | – | – | – | Active | – | – | – | COCC(C)(C)[C@@H](O)C(=O)NCCC(=O)O | inactive | inactive | inactive | – | – | – | – | Active | –
– | – | – | 115 | – | – | – | 20 | CC(C)(CO)[C@@H](O)C(=O)NCCC(=O)O | – | – | – | – | 17 | 1.29 | 76 | – | –
– | – | – | > 290 | – | – | – | – | CCCCCNC(=O)CCNC(=O)[C@H](O)C(C)(C)CO | – | – | – | – | – | – | – | – | –
– | inactive | inactive | – | – | – | – | 5 | O=C(O)CCNC(=O)[C@H](O)CCO | inactive | inactive | inactive | inactive | – | – | – | – | –
– | inactive | inactive | 115 | – | – | – | – | COC(=O)CNC(=O)[C@H](O)C(C)(C)CO | inactive | inactive | inactive | inactive | 156 | 0.91 | 5.8 | – | –
